Source: patent US12264156B2, “Compounds and pharmaceutical compositions thereof for the treatment of diseases” (GALAPAGOS NV, priority 2018, dated 2025)

Experiments:
SIK2 = molecular target: T1, SIK2 (Homo sapiens, UniProt Q9H0K1); assay: ADP-Glo kinase assay, SIK2; type: biochemical; details: ADP-Glo SIK kinase assay
T1 construct: purchased ThermoFisher Scientific PV4792
Method in brief: (§1)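 Wells with 1% DMSO or 10 μM staurosporine (final) define the control window. The kinase reaction with substrate and ATP runs 120 min at RT, followed by ADP-Glo detection: ATP depletion (40 min) and ADP-derived luminescence (30 min).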

SIK3 = molecular target: T2, SIK3 (Homo sapiens, UniProt Q9Y2K2); assay: ADP-Glo kinase assay, SIK3; type: biochemical; details: ADP-Glo SIK kinase assay
T2 construct: purchased SignalChem S12-11G-100
T2 sequence (Q9Y2K2 whole entry): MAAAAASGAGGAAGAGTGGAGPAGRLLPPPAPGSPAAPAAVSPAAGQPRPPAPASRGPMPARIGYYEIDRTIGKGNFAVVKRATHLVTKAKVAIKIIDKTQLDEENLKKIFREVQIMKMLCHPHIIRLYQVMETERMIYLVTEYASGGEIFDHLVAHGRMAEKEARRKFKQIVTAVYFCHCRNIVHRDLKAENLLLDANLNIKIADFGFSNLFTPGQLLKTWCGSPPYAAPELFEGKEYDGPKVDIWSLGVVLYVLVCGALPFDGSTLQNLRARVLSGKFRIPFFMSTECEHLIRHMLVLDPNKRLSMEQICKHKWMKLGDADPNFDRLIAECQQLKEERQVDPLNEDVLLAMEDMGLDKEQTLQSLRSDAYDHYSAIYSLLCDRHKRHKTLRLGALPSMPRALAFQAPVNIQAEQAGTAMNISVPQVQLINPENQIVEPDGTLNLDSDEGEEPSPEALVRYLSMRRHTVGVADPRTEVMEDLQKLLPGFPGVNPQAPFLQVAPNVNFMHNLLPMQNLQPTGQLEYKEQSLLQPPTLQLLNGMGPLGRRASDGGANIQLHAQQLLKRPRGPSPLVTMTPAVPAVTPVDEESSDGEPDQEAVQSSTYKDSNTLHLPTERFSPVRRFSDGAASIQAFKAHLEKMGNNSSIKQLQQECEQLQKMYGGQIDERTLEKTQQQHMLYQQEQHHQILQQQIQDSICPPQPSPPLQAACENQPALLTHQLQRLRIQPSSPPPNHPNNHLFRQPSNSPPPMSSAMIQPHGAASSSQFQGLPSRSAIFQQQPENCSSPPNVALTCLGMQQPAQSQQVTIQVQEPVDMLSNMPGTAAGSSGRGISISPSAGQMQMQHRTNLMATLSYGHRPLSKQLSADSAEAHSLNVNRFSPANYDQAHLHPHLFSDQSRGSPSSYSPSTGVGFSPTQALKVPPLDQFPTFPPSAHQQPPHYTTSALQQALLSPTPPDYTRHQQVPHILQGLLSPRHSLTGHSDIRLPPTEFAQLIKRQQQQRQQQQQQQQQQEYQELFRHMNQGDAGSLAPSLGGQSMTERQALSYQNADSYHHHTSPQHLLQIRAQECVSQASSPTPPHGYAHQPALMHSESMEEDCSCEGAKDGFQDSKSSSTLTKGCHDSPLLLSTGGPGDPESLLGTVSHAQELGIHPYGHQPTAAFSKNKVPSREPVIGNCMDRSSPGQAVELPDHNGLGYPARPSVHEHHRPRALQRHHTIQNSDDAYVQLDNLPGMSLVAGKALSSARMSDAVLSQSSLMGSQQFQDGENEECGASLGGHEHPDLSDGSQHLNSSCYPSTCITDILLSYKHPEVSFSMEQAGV
Method in brief: as §1

[1] = system: LPS triggered IL-10 secretion in monocyte-derived macrophages (MdM); assay: MdM assay: LPS-triggered IL-10 (ELISA); type: cell-based, human; details: LPS 200 ng/mL, supernatant after 2 h, maximal fold change vs LPS only
Description: SIK inhibition inhibits TNFα and increases IL-10 release in LPS triggered monocyte-derived macrophages (MdM) and dendritic […] al. 2012; Sundberg et al. 2014; Ozanne et al. 2015). This assay evaluates illustrative compounds of the invention for their inhibition of LPS-induced TNFα and LPS triggered IL-10 secretion in monocyte-derived macrophages. PBMCs are isolated from human blood samples (buffycoats). The buffy coat is aseptically transferred into a 50 mL Falcon tube, and diluted 1/2 in PBS. Falcon tubes are filled with 20 mL LymphoprepTM, on top of which 25 mL of the buffy coat is carefully added, tubes are centrifuged for 35 min at 400 g in temperature controlled centrifuge, without brake, at 25° C. PBMCs are aspirated from the white interface layer between sample and LymphoprepTM. PBMCs are washed five times in PBS. Cells are resuspended in RPMI 1640 complete medium supplemented with 10% FBS, 1% P/S, and cell density is determined using a hematologic analyzer (Sysmex XS-500i). PBMCs are centrifuged at 300×g for 10 min and resuspended at a density of 1.0*10^7 cells/80 μL Miltenyi buffer (PBS, pH 7.4, 1% FBS, 2 mM EDTA). Starting from this point of the protocol all steps are performed on ice. 20 μL of CD14+ micro-beads are added per 1.0*10^7 cells, the tube is mixed and incubated for 15 min in the fridge at 4° C. Cell suspension volume is adjusted to total volume of 100 mL using Miltenyi buffer, mixed gently and subsequently centrifuged for 10 min at 300×g. Supernantant is discarded and cell pellet is resuspended in 12 mL of Miltenyi buffer. Four LS columns are placed in the MACS Separator (magnet) from Miltenyi Biotec, and are prewet by rinsing with 3 mL of MACS buffer per column. Three mL of cell suspension is added onto the column (max 1*10^8 of labelled cells/column), and columns are subsequently washed 3 times with 3 mL of Miltenyi buffer. The columns are removed from the magnets, and 5 mL of Miltenyi buffer are added to the column to flush out the CD14+ fraction by pushing the plunger into the column. The flushed fractions are collected in a fresh 50 mL Falcon and volume is adjusted to 30 mL using Miltenyi buffer, cells are centrifuged for 10 min at 300×g. The obtained cell pellet is resuspended in 10 mL RPMI w/o FBS, and cell density is determined using a hematologic analyser (Sysmex XS-500i). 100 000 cells are seeded per well of a 96-well plate for differentiation to MdM in RPMI 1640 medium supplemented with 10% FBS, 1% P/S and 100 ng/mL rhM-CSF. On day 5 the medium is refreshed with 100 μL RPMI 1640 medium supplemented with 10% FBS, 1% P/S and 100 ng/mL rhM-CSF. On day 10, MdMs are triggered and compound is added. A compound dilution plate is made in 100% DMSO by 3-fold dilution of 10 mM stock solution. An intermediate dilution plate (10× final concentration) is made by diluting the compound dilution plate 50-fold in RPMI medium. Medium is carefully removed from cell plates using multichannel pipette, and replaced by 80 μL fresh medium. 10 μL of the 10× final concentration compound is added to the cells and incubated for 1 hour at 37° C. before addition of trigger. No trigger conditions/trigger conditions are spiked with equal final DMSO concentrations of 0.2% DMSO. 10 μL of 10×LPS (final conc. 200 ng/mL) solution are added to all wells except for the 'no trigger wells' where 10 μL medium is added. Supernatant is collected after 2 h (IL-10 determination) and after 20 h (TNFα determination) of LPS triggering. […]

T1 sequence (Q9H0K1 whole entry): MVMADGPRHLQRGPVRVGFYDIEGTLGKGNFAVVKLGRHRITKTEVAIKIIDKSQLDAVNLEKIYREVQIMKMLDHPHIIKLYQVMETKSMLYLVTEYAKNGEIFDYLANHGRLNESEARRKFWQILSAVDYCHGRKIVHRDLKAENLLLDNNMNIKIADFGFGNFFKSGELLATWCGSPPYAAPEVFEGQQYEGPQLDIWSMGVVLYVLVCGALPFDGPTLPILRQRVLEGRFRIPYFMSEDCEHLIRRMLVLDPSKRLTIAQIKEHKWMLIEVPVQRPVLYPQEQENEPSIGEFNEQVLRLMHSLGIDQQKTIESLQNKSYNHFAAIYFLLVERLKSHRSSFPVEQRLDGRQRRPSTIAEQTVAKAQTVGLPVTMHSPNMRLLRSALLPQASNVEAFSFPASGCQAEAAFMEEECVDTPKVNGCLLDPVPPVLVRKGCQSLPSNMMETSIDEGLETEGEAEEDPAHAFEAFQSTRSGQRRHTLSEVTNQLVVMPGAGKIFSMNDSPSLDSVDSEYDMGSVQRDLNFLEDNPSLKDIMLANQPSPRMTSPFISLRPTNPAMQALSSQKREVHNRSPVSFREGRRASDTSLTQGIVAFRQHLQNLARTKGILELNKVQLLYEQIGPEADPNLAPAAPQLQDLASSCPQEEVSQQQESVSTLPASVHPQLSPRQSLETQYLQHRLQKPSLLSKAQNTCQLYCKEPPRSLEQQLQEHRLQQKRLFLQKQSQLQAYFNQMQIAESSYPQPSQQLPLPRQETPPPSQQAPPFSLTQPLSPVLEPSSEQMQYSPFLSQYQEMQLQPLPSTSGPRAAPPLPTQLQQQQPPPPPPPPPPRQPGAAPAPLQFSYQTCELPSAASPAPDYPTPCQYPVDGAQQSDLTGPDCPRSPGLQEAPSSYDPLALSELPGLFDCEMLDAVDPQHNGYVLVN

SMILES: COc1cc(-c2cnc3cc(OC(C)(C)CO)ccn23)cc(OC(F)F)c1C(=O)NC1CC1 [Cpd 209, N-cyclopropyl-2-(difluoromethoxy)-4-[7-(2-hydroxy-1,1-dimethyl-ethoxy)imidazo[1,2-a]pyridin-3-yl]-6-methoxy-benzamide]
- IC50 (SIK2): > 500 nM
- IC50 (SIK3): 10 to 100 nM

SMILES: CCOC(=O)C1(F)CCN(CCCOc2ccn3c(-c4cc(OC)c(C(=O)NC5CC5)c(OC(F)F)c4)cnc3c2)CC1 [Cpd 363, ethyl 1-[3-[3-[4-(cyclopropylcarbamoyl)-3-(difluoromethoxy)-5-methoxy-phenyl]imidazo[1,2-a]pyridin-7-yl]oxypropyl]-4-fluoro-piperidine-4-carboxylate]
- IC50 (SIK2): 0.01 to 10 nM
- IC50 (SIK3): 0.01 to 10 nM

SMILES: COc1cc(-c2cnc3cc(OCCCN4CCCC4)ccn23)cc(OC(F)F)c1C(=O)NC1CC1 [compound 275, N-cyclopropyl-2-(difluoromethoxy)-6-methoxy-4-[7-(3-pyrrolidin-1-ylpropoxy)imidazo[1,2-a]pyridin-3-yl]benzamide]
- IC50 (SIK2): 0.01 to 10 nM
- IC50 (SIK3): 0.01 to 10 nM

SMILES: COc1cc(-c2cnc3cc(OCCCN4CCC4)ccn23)cc(OC(F)F)c1C(=O)NC1CC1 [compound 274, 4-[7-[3-(azetidin-1-yl)propoxy]imidazo[1,2-a]pyridin-3-yl]-N-cyclopropyl-2-(difluoromethoxy)-6-methoxy-benzamide]
- IC50 (SIK2): 0.01 to 10 nM
- IC50 (SIK3): 0.01 to 10 nM

SMILES: COc1cc(-c2cnc3cc(OCCCN4CCS(=O)(=O)CC4)ccn23)cc(OC(F)F)c1C(=O)NC1CC1 [Cpd 331, N-cyclopropyl-2-(difluoromethoxy)-4-[7-[3-(1,1-dioxo-1,4-thiazinan-4-yl)propoxy]imidazo[1,2-a]pyridin-3-yl]-6-methoxy-benzamide]
- IC50 (SIK2): 0.01 to 10 nM
- IC50 (SIK3): 0.01 to 10 nM

SMILES: COc1cc(-c2cnc3cc(OCCN4C5CCC4COC5)ccn23)cc(OC(F)F)c1C(=O)NC1CC1 [compound 193, N-cyclopropyl-2-(difluoromethoxy)-6-methoxy-4-[7-[2-(3-oxa-8-azabicyclo [3.2.1]octan-8-yl)ethoxy]imidazo[1,2-a]pyridin-3-yl]benzamide]
- IC50 (SIK2): 0.01 to 10 nM
- IC50 (SIK3): 0.01 to 10 nM

SMILES: COc1cc(-c2cnc3cc(OCCN4CCN(C(C)C)CC4)ccn23)cc(OC(F)F)c1C(=O)NC1CC1 [compound 276, N-cyclopropyl-2-(difluoromethoxy)-4-[7-[2-(4-isopropylpiperazin-1-yl)ethoxy]imidazo[1,2-a]pyridin-3-yl]-6-methoxy-benzamide]
- IC50 (SIK2): 0.01 to 10 nM
- IC50 (SIK3): 0.01 to 10 nM

SMILES: COc1cc(-c2cnc3cc(OCC(O)CN4CCOCC4)ccn23)cc(OC(F)F)c1C(=O)NC1CC1 (single isomer, unassigned) [Cpd 386, N-cyclopropyl-2-(difluoromethoxy)-4-[7-(2-hydroxy-3-morpholino-propoxy)imidazo[1,2-a]pyridin-3-yl]-6-methoxy-benzamide]
- IC50 (SIK2): 0.01 to 10 nM
- IC50 (SIK3): 0.01 to 10 nM

SMILES: COc1cc(-c2cnc3cc(OCCCN4CCC5(CC4)CN(C)C(=O)O5)ccn23)cc(OC(F)F)c1C(=O)NC1CC1 [compound 325, N-cyclopropyl-2-(difluoromethoxy)-6-methoxy-4-[7-[3-(3-methyl-2-oxo-1-oxa-3,8-diazaspiro[4.5]decan-8-yl)propoxy]imidazo[1,2-a]pyridin-3-yl]benzamide]
- IC50 (SIK2): 0.01 to 10 nM
- IC50 (SIK3): 0.01 to 10 nM

SMILES: COc1cc(-c2cnc3cc(OCCN4CCOC[C@H]4C)ccn23)cc2c1C(=O)N(CC(F)(F)F)CC2 [compound 259, 8-methoxy-6-[7-[2-[(3R)-3-methylmorpholin-4-yl]ethoxy]imidazo[1,2-a]pyridin-3-yl]-2-(2,2,2-trifluoroethyl)-3,4-dihydroisoquinolin-1-one]
- IC50 (SIK2): 10 to 100 nM
- IC50 (SIK3): 10 to 100 nM

SMILES: CCOC(=O)C1(F)CCN(CCOc2ccn3c(-c4cc(OC)c(C(=O)NC5CC5)c(OC(F)F)c4)cnc3c2)CC1 [compound 390, ethyl 1-[2-[3-[4-(cyclopropylcarbamoyl)-3-(difluoromethoxy)-5-methoxy-phenyl]imidazo[1,2-a]pyridin-7-yl]oxyethyl]-4-fluoro-piperidine-4-carboxylate]
- IC50 (SIK2): 0.01 to 10 nM
- IC50 (SIK3): 0.01 to 10 nM

SMILES: COc1cc(-c2cnc3cc(OCCOCCN4CCCCC4)ccn23)cc(OC(F)F)c1C(=O)NC1CC1 [compound 305]
- IC50 (SIK2): 0.01 to 10 nM
- IC50 (SIK3): 0.01 to 10 nM

SMILES: COc1cc(-c2cnc3cc(OCCN4CC(F)(F)C4)ccn23)cc2c1C(=O)N(CC(F)(F)F)CC2 [Cpd 244, 6-[7-[2-(3,3-difluoroazetidin-1-yl)ethoxy]imidazo[1,2-a]pyridin-3-yl]-8-methoxy-2-(2,2,2-trifluoroethyl)-3,4-dihydroisoquinolin-1-one]
- IC50 (SIK2): 0.01 to 10 nM
- IC50 (SIK3): 0.01 to 10 nM

SMILES: COc1cc(-c2cnc3cc(OCC(O)CN4CCOCC4)ccn23)cc(OC(F)F)c1C(=O)NC1CC1 (single isomer, unassigned) [Cpd 387, N-cyclopropyl-2-(difluoromethoxy)-4-[7-(2-hydroxy-3-morpholino-propoxy)imidazo[1,2-a]pyridin-3-yl]-6-methoxy-benzamide]
- IC50 (SIK2): 0.01 to 10 nM
- IC50 (SIK3): 0.01 to 10 nM

SMILES: COc1cc(-c2cnc3cc(OCCN4CCN(C)CC4)ccn23)cc(OC(F)F)c1C(=O)NC1CC1 [compound 9, N-cyclopropyl-2-(difluoromethoxy)-6-methoxy-4-[7-[2-(4-methylpiperazin-1-yl)ethoxy]imidazo[1,2-a]pyridin-3-yl]benzamide]
- IC50 (SIK2): 0.01 to 10 nM
- IC50 (SIK3): 0.01 to 10 nM

SMILES: COc1cc(-c2cnc3cc(OCCCN4CC5(COC5)C4)ccn23)cc(OC(F)F)c1C(=O)NC1CC1 [compound 273, N-cyclopropyl-2-(difluoromethoxy)-6-methoxy-4-[7-[3-(2-oxa-6-azaspiro[3.3]heptan-6-yl)propoxy]imidazo[1,2-a]pyridin-3-yl]benzamide]
- IC50 (SIK2): 0.01 to 10 nM
- IC50 (SIK3): 0.01 to 10 nM

SMILES: COc1cc(-c2cnc3cc(OCCCN4CCC5(CC4)CNC(=O)O5)ccn23)cc(OC(F)F)c1C(=O)NC1CC1 [Cpd 324, N-cyclopropyl-2-(difluoromethoxy)-6-methoxy-4-[7-[3-(2-oxo-1-oxa-3,8-diazaspiro[4.5]decan-8-yl)propoxy]imidazo[1,2-a]pyridin-3-yl]benzamide]
- IC50 (SIK2): 0.01 to 10 nM
- IC50 (SIK3): 0.01 to 10 nM

SMILES: COc1cc(-c2cnc3cc(OCC4(F)CN(C(=O)OC(C)(C)C)C4)ccn23)cc2c1C(=O)N(CC(F)(F)F)CC2 [compound 248, tert-butyl 3-fluoro-3-[[3-[8-methoxy-1-oxo-2-(2,2,2-trifluoroethyl)-3,4-dihydroisoquinolin-6-yl]imidazo[1,2-a]pyridin-7-yl]oxymethyl]azetidine-1-carboxylate]
- IC50 (SIK2): 0.01 to 10 nM
- IC50 (SIK3): 0.01 to 10 nM

SMILES: COc1cc(-c2cnc3cc(OC[C@H]4COCCO4)ccn23)cc2c1C(=O)NCC2 [compound 242, 6-[7-[[(2R)-1,4-dioxan-2-yl]methoxy]imidazo[1,2-a]pyridin-3-yl]-8-methoxy-3,4-dihydro-2H-isoquinolin-1-one]
- IC50 (SIK2): 0.01 to 10 nM
- IC50 (SIK3): 0.01 to 10 nM

SMILES: COc1cc(-c2cnc3cc(OCCN4CCOCC4)ccn23)cc2c1C(=O)N(CC(F)(F)F)CC2 [Cpd 88, 8-methoxy-6-[7-(2-morpholinoethoxy)imidazo [1,2-a]pyridin-3-yl]-2-(2,2,2-trifluoroethyl)-3,4-dihydroisoquinolin-1-one]
- IL-10 FCmax median [1]: ++ (>1.5-4.5)
